According to patent US7855228B2, “Antibiotics targeting MreB” (The Board of Trustees of the Leland Stamford Junior …, priority 2005, dated 2010):
In brackets after ≈: the same amount, converted by molar mass. Where two headings read alike, the source gives them in different places.

Columns and labels:
B. subtilis 168 = assay: Determination of minimum inhibitory concentration (MIC); assay type: cell-based, Bacillus subtilis; settings: read-out: MIC B. subtilis
Summary of the method: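 Two-fold serial agar dilution on L agar and also on Mueller Hinton agar (pH 7.3); 10 µl of stationary-phase culture diluted in 0.85% NaCl to 10^6 cells/ml spotted per plate. MIC taken as lowest concentration inhibiting growth.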

E. coli JE1011, JST975 = assay: Paper disk growth inhibitory zone; assay type: cell-based; settings: paper disk φ 8 mm, 200 μg of A22, 24 h, 37° C.
Procedure: Isolation of A22-resistant mutant Our strategy for identifying the molecular target(s) of A22 involved isolating resistant mutants which grow in the presence of concentrations of A22 that inhibit growth of the parent strain. After 24 h incubation at 37° C., E. coli strains such as JE1011 formed a turbid growth inhibitory zone (φ 12 mm) around a paper disk (φ 8 mm) containing 200 μg of A22. To identify a more suitable parent strain for our selection, we screened for a more drug-sensitive strain that would form clear growth inhibitory zones under similar incubation conditions.
Bacterial strains used E. coli K-12 strains JE1011 (F^− leuB thr trp his thy ara lac xyl mtl rpsL tonA), JST975 (the same as JE1011 but ponB) (Tamaki et al. 1977), W3110 (wild-type), MG1655 (wild-type), DV14 (F^− metB1 panD2 panF1 zhc-12::Tn10) (Vallari & Rock 1985), CAG12149 (F^− zbd-601::Tn10) (Singer et al. 1989), AT1325-678 (F^− lip-9 thi-1 his-4 purB15 proA2 mtl-1 Δmre678) (Wachi et al. 1987) and JM109 [recA1 endA1 gyrA96 thi-1 hsdR17 Δ(lac-proAB) supE44 relA1 F′ (traD36 proAB^+ lacI^q lacZΔM15)] (Yanisch-Perron et al. 1985) were used in this study. Cells were grown in Lennox (L) medium (1% Bactopeptone, 0.5% yeast extracts, 0.5% NaCl, 0.1% glucose, pH 7.2, supplemented with 20 μg/ml thymine). For the growth of AT1325-678, 0.1 μg/ml lipoic acid was supplemented. […]

In the case of `N=C(N)SCc1ccc(Cl)c(Cl)c1` [Compound 1, S-(3,4-dichlorobenzyl)isothiourea], the MIC (B. subtilis 168; Bacillus subtilis, 168, Example 2, methods as in Example 1) is reported as 100 µg/mL (≈ 425 µM), the MIC (B. subtilis 168; Bacillus subtilis, 168, Table 1, B. subtilis 168) is reported as 100 µg/mL (≈ 425 µM) and the “Growth inhibitory zone (turbid)” value (E. coli JE1011, JST975; JE1011) is reported as 12 mm. For the same molecule, the “Growth inhibitory zone (clear)” value (E. coli JE1011, JST975; JST975 (ponB)) was 32 mm.
